According to US9801889B2, “Bicyclic heterocycles as FGFR4 inhibitors” (Incyte Corporation, priority 2015, dated 2017):

Legend:
FGFR2 = FGFR2 (Homo sapiens (Human), UniProt P21802); assay: FGFR Enzymatic Assay (FRET peptide phosphorylation), FGFR2; conditions: IC50 ratio showing FGFR4 selectivity
Description: (§1) The enzymes were purchased from Millipore or Invitrogen.
(§2) GraphPad prism3 was used to analyze the data. The IC50 values were derived by fitting the data to the equation for a sigmoidal dose-response with a variable slope. Y=Bottom+(Top-Bottom)/(1+10^((LogIC50-X)*HillSlope)) where X is the logarithm of concentration and Y is the response.

FGFR1 = FGFR1 (Homo sapiens (Human), UniProt P11362); assay: FGFR Enzymatic Assay (FRET peptide phosphorylation), FGFR1; conditions: IC50 ratio showing FGFR4 selectivity
Description: as §1, §2

FGFR3 = FGFR3 (Homo sapiens (Human), UniProt P22607); assay: FGFR Enzymatic Assay (FRET peptide phosphorylation), FGFR3; conditions: IC50 ratio showing FGFR4 selectivity
Description: as §1, §2

FGFR4 = FGFR4 (Homo sapiens (Human), UniProt P22455); assay: FGFR Enzymatic Assay (FRET peptide phosphorylation), FGFR4
Description: as §1, §2

[1] = pre-incubated for 5 to 10 minutes

Sequence of FGFR2 (P21802 22-821): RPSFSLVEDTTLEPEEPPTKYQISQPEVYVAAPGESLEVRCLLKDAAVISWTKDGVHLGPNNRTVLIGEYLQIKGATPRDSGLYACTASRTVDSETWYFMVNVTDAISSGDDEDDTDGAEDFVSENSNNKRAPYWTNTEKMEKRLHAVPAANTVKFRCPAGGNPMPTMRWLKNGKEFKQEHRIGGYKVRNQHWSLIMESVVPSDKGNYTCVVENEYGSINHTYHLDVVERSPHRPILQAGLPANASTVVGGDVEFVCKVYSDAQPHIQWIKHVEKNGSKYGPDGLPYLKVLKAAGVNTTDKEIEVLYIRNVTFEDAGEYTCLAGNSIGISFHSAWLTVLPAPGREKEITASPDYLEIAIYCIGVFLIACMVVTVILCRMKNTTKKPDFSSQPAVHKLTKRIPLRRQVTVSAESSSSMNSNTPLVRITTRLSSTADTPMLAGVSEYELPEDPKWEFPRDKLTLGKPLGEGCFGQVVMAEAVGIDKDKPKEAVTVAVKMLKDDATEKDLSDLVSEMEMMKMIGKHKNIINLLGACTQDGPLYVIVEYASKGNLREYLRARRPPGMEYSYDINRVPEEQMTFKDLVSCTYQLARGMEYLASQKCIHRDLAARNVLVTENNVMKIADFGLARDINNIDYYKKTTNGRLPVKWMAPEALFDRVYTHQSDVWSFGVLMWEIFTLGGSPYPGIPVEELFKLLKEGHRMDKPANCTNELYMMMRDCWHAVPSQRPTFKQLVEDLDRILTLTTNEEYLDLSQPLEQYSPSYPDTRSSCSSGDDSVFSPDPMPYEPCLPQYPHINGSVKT
Sequence of FGFR3 (P22607 23-806): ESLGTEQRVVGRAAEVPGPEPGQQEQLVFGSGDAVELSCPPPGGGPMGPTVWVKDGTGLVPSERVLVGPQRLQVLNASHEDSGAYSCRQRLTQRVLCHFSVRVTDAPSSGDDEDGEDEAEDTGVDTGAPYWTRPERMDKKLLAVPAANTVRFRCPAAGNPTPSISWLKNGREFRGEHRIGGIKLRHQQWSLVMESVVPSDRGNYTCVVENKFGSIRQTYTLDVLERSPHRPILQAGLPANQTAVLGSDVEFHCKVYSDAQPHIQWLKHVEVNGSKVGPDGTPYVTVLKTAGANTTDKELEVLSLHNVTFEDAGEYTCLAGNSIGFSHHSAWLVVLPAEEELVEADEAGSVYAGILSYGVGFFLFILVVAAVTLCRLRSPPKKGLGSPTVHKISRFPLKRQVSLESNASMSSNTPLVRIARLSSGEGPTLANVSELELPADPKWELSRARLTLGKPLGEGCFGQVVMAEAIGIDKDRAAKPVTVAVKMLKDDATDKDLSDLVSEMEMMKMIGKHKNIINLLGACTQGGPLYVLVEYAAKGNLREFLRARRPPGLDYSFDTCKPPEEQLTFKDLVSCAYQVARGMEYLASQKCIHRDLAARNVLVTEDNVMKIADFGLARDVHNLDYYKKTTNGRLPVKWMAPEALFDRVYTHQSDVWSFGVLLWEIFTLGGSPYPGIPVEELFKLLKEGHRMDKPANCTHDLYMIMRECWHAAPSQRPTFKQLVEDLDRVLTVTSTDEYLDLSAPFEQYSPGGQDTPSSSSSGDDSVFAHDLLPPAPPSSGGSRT
Sequence of FGFR1 (P11362 22-822): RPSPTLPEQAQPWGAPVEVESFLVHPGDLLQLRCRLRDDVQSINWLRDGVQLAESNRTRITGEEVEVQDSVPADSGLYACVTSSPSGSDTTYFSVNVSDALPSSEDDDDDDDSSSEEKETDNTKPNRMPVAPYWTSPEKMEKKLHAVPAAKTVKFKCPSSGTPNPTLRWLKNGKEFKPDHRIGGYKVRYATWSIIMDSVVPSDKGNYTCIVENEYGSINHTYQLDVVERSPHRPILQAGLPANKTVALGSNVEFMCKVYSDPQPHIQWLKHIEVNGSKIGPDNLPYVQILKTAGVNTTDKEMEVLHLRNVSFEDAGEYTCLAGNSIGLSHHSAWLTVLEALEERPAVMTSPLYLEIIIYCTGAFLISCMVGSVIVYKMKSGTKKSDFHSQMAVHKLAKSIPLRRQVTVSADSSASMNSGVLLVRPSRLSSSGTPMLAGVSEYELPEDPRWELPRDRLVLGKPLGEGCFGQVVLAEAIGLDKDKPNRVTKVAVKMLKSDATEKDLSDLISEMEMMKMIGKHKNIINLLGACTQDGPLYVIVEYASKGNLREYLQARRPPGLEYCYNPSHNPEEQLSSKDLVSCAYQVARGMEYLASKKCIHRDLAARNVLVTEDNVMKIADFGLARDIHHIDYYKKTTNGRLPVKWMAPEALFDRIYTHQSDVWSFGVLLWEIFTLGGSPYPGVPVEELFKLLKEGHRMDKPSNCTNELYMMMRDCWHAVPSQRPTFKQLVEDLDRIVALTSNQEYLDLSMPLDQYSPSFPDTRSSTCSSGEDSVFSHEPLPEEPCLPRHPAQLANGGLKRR
Sequence of FGFR4 (P22455 22-802): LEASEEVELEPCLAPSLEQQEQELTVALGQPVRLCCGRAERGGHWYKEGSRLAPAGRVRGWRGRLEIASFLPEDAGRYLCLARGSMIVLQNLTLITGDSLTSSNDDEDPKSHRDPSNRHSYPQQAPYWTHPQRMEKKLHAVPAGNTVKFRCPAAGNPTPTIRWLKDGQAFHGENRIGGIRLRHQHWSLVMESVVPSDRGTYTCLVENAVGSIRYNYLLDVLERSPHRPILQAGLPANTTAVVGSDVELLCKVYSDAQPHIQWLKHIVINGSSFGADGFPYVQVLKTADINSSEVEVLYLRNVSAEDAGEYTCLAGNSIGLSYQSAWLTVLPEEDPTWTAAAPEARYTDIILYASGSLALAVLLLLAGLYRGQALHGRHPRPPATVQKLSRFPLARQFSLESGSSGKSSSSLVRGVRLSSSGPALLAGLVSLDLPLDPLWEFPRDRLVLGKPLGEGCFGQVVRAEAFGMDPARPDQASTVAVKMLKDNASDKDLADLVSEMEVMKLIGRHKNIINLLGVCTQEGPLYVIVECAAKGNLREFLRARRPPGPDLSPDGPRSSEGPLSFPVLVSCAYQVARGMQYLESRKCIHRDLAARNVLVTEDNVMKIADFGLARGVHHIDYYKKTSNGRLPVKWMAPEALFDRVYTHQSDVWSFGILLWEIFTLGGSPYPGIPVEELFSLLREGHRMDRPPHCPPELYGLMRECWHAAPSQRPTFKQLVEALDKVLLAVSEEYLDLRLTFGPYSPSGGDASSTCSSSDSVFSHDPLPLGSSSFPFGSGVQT

| Compound | FGFR2/FGFR4 (FGFR2; [1]) | FGFR2/FGFR4 (FGFR2; pre-incubated for 4 hours) | FGFR1/FGFR4 (FGFR1; [1]) | FGFR1/FGFR4 (FGFR1; pre-incubated for 4 hours) | FGFR3/FGFR4 (FGFR3; [1]) | FGFR3/FGFR4 (FGFR3; pre-incubated for 4 hours) | IC50 (FGFR4) [nM] |
| --- | --- | --- | --- | --- | --- | --- | --- |
| C=CC(=O)Nc1cc(-c2cc3c(cn2)CN(c2c(F)c(OC)cc(OC)c2F)C(=O)C32CC2)c(C)cc1F [Example 6, N-(5-(2′-(2,6-difluoro-3,5-dimethoxyphenyl)-3′-oxo-2′,3′-dihydro-1′H-spiro[cyclopropane-1,4′-[2,7]naphthyridine]-6′-yl)-2-fluoro-4-methylphenyl)acrylamide] | >100 | >100 | >100 | >100 | >100 | >100 |  |
| C=CC(=O)Nc1cc(-c2cc3c(cn2)CN(c2c(F)c(OC)cc(OC)c2F)C(=O)C32CC2)cc(N2CCOCC2)c1 [Example 10, N-{3-[2′-(2,6-difluoro-3,5-dimethoxyphenyl)-3′-oxo-2′,3′-dihydro-1′H-spiro[cyclopropane-1,4′-[2,7]naphthyridin]-6′-yl]-5-morpholin-4-ylphenyl}acrylamide] | >100 | >100 | >100 | >100 | >100 | >100 |  |
| C=CC(=O)Nc1cn[nH]c1-c1cc2c(cn1)CN(c1c(F)c(OC)cc(OC)c1F)C(=O)C21CC1 [Example 14, N-(5-(2′-(2,6-difluoro-3,5-dimethoxyphenyl)-3′-oxo-2′,3′-dihydro-1′H-spiro[cyclopropane-1,4′-[2,7]naphthyridine]-6′-yl)-1H-pyrazol-4-yl)acrylamide] |  | >100 |  | >100 |  | >100 |  |
| C=CC(=O)Nc1cnn(CC(=O)NC)c1-c1cc2c(cn1)CN(c1c(F)c(OC)cc(OC)c1F)C(=O)C21CC1 [Example 20, N-(5-(2′-(2,6-difluoro-3,5-dimethoxyphenyl)-3′-oxo-2′,3′-dihydro-1′H-spiro[cyclopropane-1,4′-[2,7]naphthyridine]-6′-yl)-1-(2-(methylamino)-2-oxoethyl)-1H-pyrazol-4-yl)acrylamide] |  | >100 |  | >50 |  | >100 | 10 to 30 |
| C=CC(=O)Nc1cnn(C2CCOCC2)c1-c1cc2c(cn1)CN(c1c(F)c(OC)cc(OC)c1F)C(=O)C21CC1 [Example 18, N-(5-(2′-(2,6-difluoro-3,5-dimethoxyphenyl)-3′-oxo-2′,3′-dihydro-1′H-spiro[cyclopropane-1,4′-[2,7]naphthyridine]-6′-yl)-1-(tetrahydro-2H-pyran-4-yl)-1H-pyrazol-4-yl)acrylamide] |  | >50 |  | >100 |  | >100 |  |
| C=CC(=O)Nc1cnc(C)c(-c2cc3c(cn2)CN(c2c(F)c(OC)cc(OC)c2F)C(=O)C32CC2)c1 [Example 7, N-(5-(2′-(2,6-difluoro-3,5-dimethoxyphenyl)-3′-oxo-2′,3′-dihydro-1′H-spiro[cyclopropane-1,4′-[2,7]naphthyridine]-6′-yl)-6-methylpyridin-3-yl)acrylamide] | >100 | >100 | >100 | >100 | >100 | >100 |  |
| C=CC(=O)Nc1cnn(CCO)c1-c1cc2c(cn1)CN(c1c(F)c(OC)cc(OC)c1F)C(=O)C21CC1 [Example 17, N-(5-(2′-(2,6-difluoro-3,5-dimethoxyphenyl)-3′-oxo-2′,3′-dihydro-1′H-spiro[cyclopropane-1,4′-[2,7]naphthyridine]-6′-yl)-1-(2-hydroxyethyl)-1H-pyrazol-4-yl)acrylamide] |  | >100 |  | >100 |  | >100 |  |
| C=CC(=O)N1CCCC(c2cc3c(cn2)CN(c2c(F)c(OC)cc(OC)c2F)C(=O)C32CC2)C1 (stereo not shown) [Example 8, 6′-(1-acryloylpiperidin-3-yl)-2′-(2,6-difluoro-3,5-dimethoxyphenyl)-1′H-spiro[cyclopropane-1,4′-[2,7]naphthyridin]-3′(2′H)-one] | >1 | >2 | >5 | >10 | >1 | >2 |  |
| C=CC(=O)Nc1cnn(CCOC)c1-c1cc2c(cn1)CN(c1c(F)c(OC)cc(OC)c1F)C(=O)C21CC1 [Example 15, N-(5-(2′-(2,6-difluoro-3,5-dimethoxyphenyl)-3′-oxo-2′,3′-dihydro-1′H-spiro[cyclopropane-1,4′-[2,7]naphthyridine]-6′-yl)-1-(2-methoxyethyl)-1H-pyrazol-4-yl)acrylamide] |  | >100 |  | >100 |  | >100 |  |
| C=CC(=O)Nc1cnn(CCOCC)c1-c1cc2c(cn1)CN(c1c(F)c(OC)cc(OC)c1F)C(=O)C21CC1 [Example 16, N-(5-(2′-(2,6-difluoro-3,5-dimethoxyphenyl)-3′-oxo-2′,3′-dihydro-1′H-spiro[cyclopropane-1,4′-[2,7]naphthyridine]-6′-yl)-1-(2-ethoxyethyl)-1H-pyrazol-4-yl)acrylamide] |  | >100 |  | >100 |  | >100 |  |
| C=CC(=O)Nc1cc(-c2cc3c(cn2)CN(c2c(F)c(OC)cc(OC)c2F)C(=O)C32CC2)ccc1CN1CCOCC1 [Example 12, N-(5-(2′-(2,6-difluoro-3,5-dimethoxyphenyl)-3′-oxo-2′,3′-dihydro-1′H-spiro[cyclopropane-1,4′-[2,7]naphthyridine]-6′-yl)-2-(morpholinomethyl)phenyl)acrylamide] | >1 | >25 | >10 | >100 | >1 | >10 |  |

More lines, main results first:

| FGFR2/FGFR4 (FGFR2; [1]) | FGFR2/FGFR4 (FGFR2; pre-incubated for 4 hours) | FGFR1/FGFR4 (FGFR1; [1]) | FGFR1/FGFR4 (FGFR1; pre-incubated for 4 hours) | FGFR3/FGFR4 (FGFR3; [1]) | FGFR3/FGFR4 (FGFR3; pre-incubated for 4 hours) | Compound | IC50 (FGFR4) [nM] |
| --- | --- | --- | --- | --- | --- | --- | --- |
|  | >100 |  | >100 |  | >100 | C=CC(=O)Nc1cnn(CCN2CCOCC2)c1-c1cc2c(cn1)CN(c1c(F)c(OC)cc(OC)c1F)C(=O)C21CC1 [Example 19, N-(5-(2′-(2,6-difluoro-3,5-dimethoxyphenyl)-3′-oxo-2′,3′-dihydro-1′H-spiro[cyclopropane-1,4′-[2,7]naphthyridine]-6′-yl)-1-(2-morpholinoethyl)-1H-pyrazol-4-yl)acrylamide] |  |
|  | >100 |  | >100 |  | >100 | C=CC(=O)Nc1cn(CC(=O)N(C)C)nc1-c1cc2c(cn1)CN(c1c(F)c(OC)cc(OC)c1F)C(=O)C21CC1 [Example 36, N-(3-(2′-(2,6-difluoro-3,5-dimethoxyphenyl)-3′-oxo-2′,3′-dihydro-1′H-spiro[cyclopropane-1,4′-[2,7]naphthyridine]-6′-yl)-1-(2-(dimethylamino)-2-oxoethyl)-1H-pyrazol-4-yl)acrylamide] |  |
|  | >100 |  | >100 |  | >100 | C=CC(=O)Nc1cn(CCN2CCOCC2)nc1-c1cc2c(cn1)CN(c1c(F)c(OC)cc(OC)c1F)C(=O)C21CC1 [Example 34, N-(3-(2′-(2,6-difluoro-3,5-dimethoxyphenyl)-3′-oxo-2′,3′-dihydro-1′H-spiro[cyclopropane-1,4′-[2,7]naphthyridine]-6′-yl)-1-(2-morpholinoethyl)-1H-pyrazol-4-yl)acrylamide] |  |
|  | >100 |  | >100 |  | >100 | C=CC(=O)Nc1cn(CCOC)nc1-c1cc2c(cn1)CN(c1c(F)c(OC)cc(OC)c1F)C(=O)C21CC1 [Example 32, N-(3-(2′-(2,6-difluoro-3,5-dimethoxyphenyl)-3′-oxo-2′,3′-dihydro-1′H-spiro[cyclopropane-1,4′-[2,7]naphthyridine]-6′-yl)-1-(2-methoxyethyl)-1H-pyrazol-4-yl)acrylamide] |  |
|  | >100 |  | >100 |  | >100 | C=CC(=O)Nc1cn(CC2CCOCC2)nc1-c1cc2c(cn1)CN(c1c(F)c(OC)cc(OC)c1F)C(=O)C21CC1 [Example 35, N-(3-(2′-(2,6-difluoro-3,5-dimethoxyphenyl)-3′-oxo-2′,3′-dihydro-1′H-spiro[cyclopropane-1,4′-[2,7]naphthyridine]-6′-yl)-1-((tetrahydro-2H-pyran-4-yl)methyl)-1H-pyrazol-4-yl)acrylamide] |  |
